The results in this text go back to patent US20040214798A1 (priority 2003, published 2004).

The structures appear in SMILES notation. Where “and” joins values, the source holds several entries; their conditions need not be identical. Equal values may be shown once. Read-outs that look alike come from different tables or passages of the source.

The test system of series [1] is SKOV3 human ovarian carcinoma cells not infected (NR−). Description: cells. It is filed as cell-based.
Series [2] concerns the target T1, E. coli nitroreductase (Escherichia coli, UniProt P38489). The format is biochemical.
Series [3] concerns SKOV3 human ovarian carcinoma cells infected with adenovirus expressing E. coli nitroreductase (NR+). Description: Cytotoxicity in SKOV3 cells infected with adenovirus expressing E. coli nitroreductase (NR+), MTT. It is filed as cell-based. The conditions noted are these: for Ratio of IC50 values (NR−/NR+): SKOV3, 18 hour drug exposure; for IC50: adenovirus NR, 100 pfu/cell.
The target in series [4] is T1, E. coli nitroreductase. Description: in vitro. The conditions noted are these: pH 7.
A further series deals with hDT7 cells. Description: cells. The format is cell-based, Chinese hamster. The conditions noted are these: read-out: IC50 hDT7.
The test system of the next series is T116 cells. In words: cells. It is filed as cell-based, Chinese hamster.
Series [5] deals with F179 cells. Description: cells. The conditions noted are these: Cricetulus griseus, read-out: IC50 F179.
Series [6] addresses T1, E. coli nitroreductase. The conditions noted are these: pH 7.
Series [7] concerns F179 cells. The conditions noted are these: read-out: IC50 F179.
Where [8] appears, read: Homo sapiens, SK-OV-3, 18 h, read-out: IC50 in SKOV3 NR−.
[9] abbreviates: 200 μM compound, 1 mM NADH, 1.8 μg E. coli nitroreductase, 10 mM phosphate buffer pH 7.0, 37° C., 250 μL, UV 340 nm.
Setting [10] is: read-out: IC50 in SKOV3 NR+, 18 hour drug exposure.
The mark [11] stands for this setting: Cricetulus griseus, V79, 72 h, read-out: IC50 T116.
The mark [12] stands for this setting: Homo sapiens, SK-OV-3, 18 h, read-out: IC50 in SKOV3 NR+, 18 hour drug exposure.
Where [13] appears, read: 18 hour drug exposure; uninfected cells; read-out: IC50 in SKOV3 NR−.
Where [14] appears, read: 18 hour drug exposure, read-out: IC50 in SKOV3 NR+.
Where [15] appears, read: 72 hours drug exposure, human NQO1-expressing cells.
Setting [16] is: 72 hours drug exposure, E. coli nitroreductase-expressing cells, read-out: IC50 T116.
[17] abbreviates: 72 hours drug exposure, vector-only control cells.

T1 sequence (P38489 whole entry): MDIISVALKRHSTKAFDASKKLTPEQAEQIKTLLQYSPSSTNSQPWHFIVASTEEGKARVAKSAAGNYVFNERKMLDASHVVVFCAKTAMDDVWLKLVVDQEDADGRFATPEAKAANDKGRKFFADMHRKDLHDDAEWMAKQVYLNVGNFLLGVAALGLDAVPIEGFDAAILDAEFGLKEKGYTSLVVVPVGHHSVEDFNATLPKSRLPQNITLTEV

As a reminder, the IC50 is the concentration needed to halve the response being measured. As for `CC(OP(N)(=O)N(CCCl)CCCl)c1ccc([N+](=O)[O-])cc1` (single isomer, unassigned) [Compound 15d-A, 1-(4-nitrophenyl)ethyl N,N-bis(2-chloroethyl)phosphordiamidate], the IC50 in series [1] (setting [8]) is more than 1000 µM; in series [3] (setting [10]), 1.8 µM. Also, at E. coli nitroreductase [2] (setting [9]), the “NR Assay vi (initial velocity)” value came to 2.53 nmol/min. In series [3], the “Ratio of IC50 values (NR−/NR+)” value is more than 556.
As to `CC(OP(N)(=O)N(CCCl)CCCl)c1ccc([N+](=O)[O-])cc1` (single isomer, unassigned) [Compound 15d-B, 1-(4-nitrophenyl)ethyl N,N-bis(2-chloroethyl)phosphordiamidate], the IC50 in [1] (read-out: IC50 in SKOV3 NR−; 18 hour drug exposure; uninfected cells) is more than 1000 µM; in series [3] (setting [10]) it was 4 µM. Moreover, the “NR Assay vi (initial velocity)” value at E. coli nitroreductase [2] (setting [9]) was 1.65 nmol/min. Further, the “Ratio of IC50 values (NR−/NR+)” value in series [3] was more than 250.
By half-life is commonly meant how long it takes for the measured level to halve. Lower therefore signals fast loss. At E. coli nitroreductase [4], `O=[N+]([O-])c1ccc2c(c1)NP(=O)(N(CCCl)CCCl)NC2` (stereo not drawn) [Compound 9d, 7-Nitro-2-[bis(2-chloroethyl)amino]-1,3,2-benzodiazaphosphorinane-2-oxide] came in with a half-life of 7.8 min. In addition, the half-maximal inhibitory concentration (IC50) is more than 100 µM in the series with hDT7 cells (Cricetulus griseus, V79, 72 h); more than 100000 nM in the series with T116 cells (setting [11]); more than 100 µM in the series on F179 cells [5] (72 h). Also, the “Ratio of IC50 values (F179/T116)” value in the series with T116 cells is listed as “˜1”.
Consider `NP(=O)(OCc1ccccc1[N+](=O)[O-])N(CCCl)CCCl` (stereo not drawn) [Compound 15a, 2-nitrobenzyl N,N-bis(2-chloroethyl)phosphordiamidate], for which the concentration for half-maximal inhibition (IC50) in [1] (setting [8]) came out at 950 µM; in series [3] (setting [12]) it was 90 µM. Moreover, the “NR Assay vi (initial velocity)” value at E. coli nitroreductase [2] (setting [9]) turned out to be 0.46 nmol/min. For the same molecule, the “Ratio of IC50 values (NR−/NR+)” value in series [3] is reported as 11.
On the same counts, the results for `NP(=O)(OCc1cccc([N+](=O)[O-])c1)N(CCCl)CCCl` (stereo not drawn) [Compound 15b, 3-nitrobenzyl N,N-bis(2-chloroethyl)phosphordiamidate] are 820 µM, 240 µM, 1.23 nmol/min and 3.4.
Take `NP(=O)(OCc1ccc([N+](=O)[O-])cc1)N(CCCl)CCCl` (stereo not drawn) [Compound 15c, 4-nitrobenzyl N,N-bis(2-chloroethyl)phosphordiamidate]: the IC50 was more than 1000 µM in [1] (setting [8]); 27 µM with hDT7 cells (Cricetulus griseus, V79, 72 h); 10 nM with T116 cells (Cricetulus griseus, V79, 1 h, read-out: IC50 T116); 10 nM in the series with T116 cells (Cricetulus griseus, V79, 1 h, read-out: IC50 in E. coli nitroreductase-expressing T116 cells); 3 nM in the series with T116 cells (setting [11]); 3 nM with T116 cells (Cricetulus griseus, V79, 72 h, read-out: IC50 in E. coli nitroreductase-expressing T116 cells). The IC50 in series [3] (setting [12]) was 1.1 µM; in the series on F179 cells [5] (1 h), more than 100 µM; in the series with F179 cells [5] (72 h), 62.5 µM. Also, in the series with T116 cells, the “Ratio of IC50 values (F179/T116)” value was 20,833 and >10,000. Besides, the “NR Assay vi (initial velocity)” value on E. coli nitroreductase [2] (setting [9]) stood at 2.31 nmol/min. For the same molecule, the “Ratio of IC50 values (NR−/NR+)” value in [3] is reported as more than 909.
With `NC(=O)c1cc(COP(N)(=O)N(CCCl)CCCl)ccc1[N+](=O)[O-]` (stereo not drawn) [Compound 15e, 3-carboxamide-4-nitrobenzyl N,N-bis(2-chloroethyl)phosphordiamidate], the half-maximal inhibitory concentration (IC50) in series [1] (setting [13]) was more than 1000 µM; in [3] (setting [14]) it was 41 µM. Moreover, the “NR Assay vi (initial velocity)” value at E. coli nitroreductase [2] (setting [9]) stood at 0.38 nmol/min. Also, in series [3], the “Ratio of IC50 values (NR−/NR+)” value is reported as more than 24.
Turning to `COC(=O)c1cc(COP(N)(=O)N(CCCl)CCCl)ccc1[N+](=O)[O-]` (stereo not drawn) [Compound 15f, 3-methoxycarbonyl-4-nitrobenzyl N,N-bis(2-chloroethyl) phosphordiamidate], the IC50 came out at 400 µM in series [1] (setting [13]) and 2.1 µM in series [3] (setting [14]). The “NR Assay vi (initial velocity)” value at E. coli nitroreductase [2] (setting [9]) was found to be 0.30 nmol/min. The “Ratio of IC50 values (NR−/NR+)” value in series [3] was determined as 190.
On to `Cc1cc(COP(N)(=O)N(CCCl)CCCl)ccc1[N+](=O)[O-]` (stereo not drawn) [Compound 15g, 3-methyl-4-nitrobenzyl N,N-bis(2-chloroethyl)phosphordiamidate], for which the half-maximal inhibitory concentration (IC50) in [1] (setting [8]) was determined as 510 µM; in series [3] (setting [12]), 3.3 µM. Moreover, the “NR Assay vi (initial velocity)” value at E. coli nitroreductase [2] (setting [9]) came out at 1.61 nmol/min. Further, the “Ratio of IC50 values (NR−/NR+)” value in series [3] is on record as 155.
Consider `COc1cc(COP(N)(=O)N(CCCl)CCCl)ccc1[N+](=O)[O-]` (stereo not drawn) [Compound 15h, 3-methoxy-4-nitrobenzyl N,N-bis(2-chloroethyl)phosphordiamidate], for which the results for the half-maximal inhibitory concentration (IC50) in [1] (setting [8]) and in series [3] (setting [12]) were 910 µM and 3.1 µM, respectively. On E. coli nitroreductase [2] (setting [9]), the “NR Assay vi (initial velocity)” value is 4.40 nmol/min. Further, the “Ratio of IC50 values (NR−/NR+)” value in [3] stood at 294.
For `COc1cc([N+](=O)[O-])ccc1COP(N)(=O)N(CCCl)CCCl` (stereo not drawn) [Compound 15i, 2-methoxy-4-nitrobenzyl N,N-bis(2-chloroethyl)phosphordiamidate], in that order: more than 1000 µM, 1.8 µM, 12.56 nmol/min and more than 556.
Take `O=[N+]([O-])c1ccc([C@H]2CCO[P@@](=O)(N(CCCl)CCCl)N2)cc1` [cis-13b, 2-[Bis(2-chloroethyl)amino]-4-(p-nitrophenyl)-2H-1,3,2-oxazaphosphorinane 2-oxide]: the IC50 in series [1] (setting [13]) is more than 1000 µM; in the series with hDT7 cells it was more than 100 µM; in the series on T116 cells (read-out: IC50 T116) it was 45300 nM; in series [3] (setting [14]) it was 510 µM; with F179 cells [7], more than 100 µM. In addition, the “NR assay t1/2 (half-life of reduction by E. coli nitroreductase)” value at E. coli nitroreductase [6] is 11.9 min. In addition, the “Ratio of IC50 values (F179/T116)” value in the series with T116 cells is more than 2.2. Besides, the “Ratio of IC50 values (NR−/NR+)” value in series [3] is more than 2.
Take `O=[N+]([O-])c1ccc([C@@H]2CCN[P@](=O)(N(CCCl)CCCl)O2)cc1` [cis-13c, 2-[Bis(2-chloroethyl)amino]-6-(p-nitrophenyl)-2H-1,3,2-oxazaphosphorinane 2-oxide]: the IC50 was 680 µM in [1] (setting [13]), more than 100 µM with hDT7 cells and 4.5 µM in [3] (setting [14]). The “NR assay t1/2 (half-life of reduction by E. coli nitroreductase)” value at E. coli nitroreductase [6] is on record as 5.2 min. The “NR Assay vi (initial velocity)” value at E. coli nitroreductase [2] (setting [9]) is 2.33 nmol/min. Moreover, in series [3], the “Ratio of IC50 values (NR−/NR+)” value stood at 151.
Consider `O=[N+]([O-])c1ccc([C@H]2CCN[P@@](=O)(N(CCCl)CCCl)N2)cc1` [cis-13d, 2-[Bis(2-chloroethyl)amino]-4-(p-nitrophenyl)-2H-1,3,2-diazaphosphorinane 2-oxide], for which the IC50 was determined as 46.8 µM in the series with hDT7 cells, 4600 nM in the series on T116 cells (read-out: IC50 T116) and 56.8 µM with F179 cells [7]. The “NR assay t1/2 (half-life of reduction by E. coli nitroreductase)” value at E. coli nitroreductase [6] is listed as 6.4 min. In addition, the “Ratio of IC50 values (F179/T116)” value in the series on T116 cells is given as 12.3.
Take `O=[N+]([O-])c1ccc([C@H]2CCO[P@@](=O)(N(CCCl)CCCl)N2)cc1` [trans-13b, 2-[Bis(2-chloroethyl)amino]-4-(p-nitrophenyl)-2H-1,3,2-oxazaphosphorinane 2-oxide]: the IC50 in [1] (read-out: IC50 in SKOV3 NR−) is 820 µM; with hDT7 cells (setting [15]), more than 100 µM; with T116 cells (setting [16]) it was 51500 nM; in [3] (setting [14]), 250 µM; in the series on F179 cells [7] (setting [17]) it was more than 100 µM. Besides, the “NR assay t1/2 (half-life of reduction by E. coli nitroreductase)” value on E. coli nitroreductase [6] amounted to 2.9 min. In addition, the “Ratio of IC50 values (F179/T116)” value in the series on T116 cells is reported as more than 1.9. In [3], the “Ratio of IC50 values (NR−/NR+)” value is 3.3.
As for `O=[N+]([O-])c1ccc([C@@H]2CCN[P@](=O)(N(CCCl)CCCl)O2)cc1` [trans-13c, 2-[Bis(2-chloroethyl)amino]-6-(p-nitrophenyl)-2H-1,3,2-oxazaphosphorinane 2-oxide], the concentration for half-maximal inhibition (IC50) in series [1] (read-out: IC50 in SKOV3 NR−) was more than 1000 µM; with hDT7 cells (setting [15]) it was more than 100 µM; with T116 cells (1 hour drug exposure, read-out: IC50 T116) it was 166 nM; in the series with T116 cells (setting [16]) it was 27 nM; in series [3] (setting [14]), 5 µM; in the series on F179 cells [7] (1 hour drug exposure), more than 100 µM. Moreover, the “NR assay t1/2 (half-life of reduction by E. coli nitroreductase)” value at E. coli nitroreductase [6] amounted to 3.9 min. In addition, the “Ratio of IC50 values (F179/T116)” value is 22,519 in the series on T116 cells and more than 602 in the series on T116 cells (1 hour drug exposure). Also, the “NR Assay vi (initial velocity)” value at E. coli nitroreductase [2] (pH 7) came out at 3.54 nmol/min. Also, the “Ratio of IC50 values (NR−/NR+)” value in series [3] is listed as more than 200.
Take `O=[N+]([O-])c1ccc([C@H]2CCN[P@@](=O)(N(CCCl)CCCl)N2)cc1` [trans-13d, 2-[Bis(2-chloroethyl)amino]-4-(p-nitrophenyl)-2H-1,3,2-diazaphosphorinane 2-oxide]: the IC50 with hDT7 cells (setting [15]) is more than 100 µM; with T116 cells (setting [16]), 48300 nM; in the series with F179 cells [7] (setting [17]), more than 100 µM. The “NR assay t1/2 (half-life of reduction by E. coli nitroreductase)” value at E. coli nitroreductase [6] came out at 4.2 min. Further, the “Ratio of IC50 values (F179/T116)” value in the series with T116 cells was more than 2.1.
